The text below walks through data of patent US20240294504A1, “COMPOUNDS, COMPOSITIONS, AND METHODS FOR INDUCING ANTIMICROBIAL INTRACELLULAR ACTIVITY AND FOR PREVENTING AND TREATING MICROBIAL INFECTIONS” (The Broad Institute, Inc., priority 2021, published 2024).

For data set [1], the system named is intracellular K. pneumoniae. In words: Intracellular survival of K. pneumoniae (RB120) in bladder epithelial cells (gentamicin protection assay, CFUs from plated cell lysates). In kind it is cell-based, Klebsiella pneumoniae. The conditions noted are these: for EC50: 24 hours of treatment, bladder epithelial cells, read-out: EC50 of dose-dependent killing / antimicrobial activity against intracellular K. pneumoniae.

Data set [2] deals with intracellular carbapenem-tolerant K. pneumoniae. The following applies: primary screen 5 μM, retest 2.5 to 20 μM.
Protocol: Bladder epithelial cells were infected with lux-expressing K. pneumoniae and incubated with the carbapenem antibiotic meropenem (see FIG. 1A), after killing extracellular bacteria with a high dose of gentamicin shortly after the infection. Intracellular survival was assessed by determining the luminescence intensity of intracellular bacteria that had been liberated by host cell lysis and outgrown in LB medium for 7 hours. […] Mean and SD of Z-factors of n=32 plates from 4 batches (independent outgrowth events) shown. […] Partial hits and hits involving known antibiotics were excluded. Hits from the primary screen were retested in a secondary screen at different concentration.
Another data set concerns cancer cells. The following applies: cited from earlier work.
Data set [3] deals with uropathogenic Escherichia coli (UPEC, UTI89). In words: Intracellular survival of UPEC in bladder epithelial cells. The class given is cell-based. The conditions noted are these: 10 μM, 4 hours.
Data set [4] relates to extracellular K. pneumoniae. The class given is cell-based, Klebsiella pneumoniae.
The subject of a further data set is tumor growth. The conditions noted are these: mouse, in vivo; cited from earlier work.
The subject of data set [5] is Pseudomonas aeruginosa (PAO1). In words: Intracellular survival of P. aeruginosa in bladder epithelial cells. The following applies: 10 μM, 24 hours. The class given is cell-based.
The next data set deals with interferon beta response. In words: Interferon beta response in infected bladder epithelial cells. The following applies: 24 hours (24 to 48 hours post infection). The class given is cell-based, human. Details: dose or concentration left out as unconfirmed. As for the experimental part: FIG. 7. […] Infected cells were treated for 24 hours with […] (S)-crizotinib, AY9944 or DMSO control from 24 to 48 hours post infection.

Data set [6] relates to K. pneumoniae ST258 expressing mNeon (UCI_38DwbaP_mNeon). In words: Confocal microscopy of fluorescent Klebsiella-containing vacuoles (LAMP1) in bladder epithelial cells. The class given is cell-based, Klebsiella pneumoniae. The conditions noted are these: 10 μM, 24 hours (24 to 48 hours post infection).
The subject of the next data set is SARS-COV-2. Briefly: SARS-COV-2 infection of veroE6 kidney epithelial cells (immunofluorescence microscopy). The class given is cell-based.
Data set [7] has as its system intracellular K. pneumoniae. In words: Intracellular survival of K. pneumoniae in human lung epithelial cell line A549. The class given is cell-based, Klebsiella pneumoniae. The conditions noted are these: 10 μM, over 2 hours.
Data set [8] deals with intracellular Salmonella Typhimurium. In words: Intracellular survival of Salmonella Typhimurium in host cells. The class given is cell-based.
The subject of data set [9] is post-lanosterol cholesterol biosynthesis pathway. Briefly: LC-MS based lipidomics of sterol intermediates in host cells. The class given is cell-based, human. The following applies: 10 μM. As for the experimental part:
FIGS. 17A-17C. LC-MS based lipidomics evaluation of effect of other available post-lanosterol cholesterol biosynthesis inhibitors on infection. (FIG. 17A) Post-lanosterol pathway. (FIG. 17B) Effect of 10 μM AY9944 or 10 μM (S)-crizotinib after 2 hours of treatment (FIG. 17C) or after 24 hours of treatment.

The test system of the next data set is Gram-positive bacteria. The following applies: cited from earlier work.
The mark [10] stands for this setting: 10 μM, after 24 hours of treatment.
Setting [11] is: Klebsiella pneumoniae, Epithelial cell.
The mark [12] stands for this setting: 24 h treatment of infected bladder cells.

Values joined by “and” are separate entries in the source; they are usually repeats but may differ in a detail not shown here. Equal values may be shown once. “Also recorded” adds a separate entry of the source. Read-outs that look alike come from different tables or passages of the source.

On to `C[C@@H](Oc1cc(-c2cnn(C3CCNCC3)c2)cnc1N)c1c(Cl)ccc(F)c1Cl` [(R)-crizotinib], for which the “host cell cytotoxicity against bladder epithelial cells” value (shortened to “host cell cytotoxicity”) with bladder epithelial cells is on record as “displayed host cell cytotoxicity in a dose-dependent manner”. Further, the “killing % of the intracellular K. pneumoniae population” value in [1] (setting [10]) came out at 99%. The EC50 in data set [1] (setting [11]) turned out to be 1100 nM. The “outcome in high-throughput screen” value in [2] is recorded as “top hits”.
Consider `C[C@H](Oc1cc(-c2cnn(C3CCNCC3)c2)cnc1N)c1c(Cl)ccc(F)c1Cl` [(S)-crizotinib], for which the “inhibits colony formation of cancer cells” value in the data set with cancer cells was “low micromolar concentrations”. Besides, the “antibacterial activity in bladder epithelial cells infected with UPEC” value in data set [3] was “antibacterial activity”. The “antibacterial activity against K. pneumoniae grown in axenic medium” value in data set [4] is given as “did not display antibacterial activity”. The “tumor growth in mice” value in the data set with tumor growth is on record as “suppress tumor growth in mice”. Further, in [5], the “antibacterial activity in bladder epithelial cells infected with Pseudomonas aeruginosa” value was “antibacterial activity”. Also, the “host cell cytotoxicity” value with bladder epithelial cells was “did not display cytotoxicity”. Moreover, in the data set on interferon beta response, the “interferon beta response in bladder epithelial cells infected with K. pneumoniae” value was “do not induce an interferon beta response”. Moreover, in data set [6], the “reduction in the median fluorescence intensity of mNeon-expressing Klebsiella in LAMP1 containing compartments” value is 33% and the “reduction of detected Klebsiella containing compartments” value was determined as 63%. Further, the “antiviral activity in epithelial cells infected with SARS-COV-2” value in the data set on SARS-COV-2 (veroE6, MOI 0.1, 24 h treatment) is on record as “induced antiviral activity in epithelial cells infected with SARS-COV-2 in a dose dependent manner”. Also, in [7], the “antiinfective activity against intracellular K. pneumoniae in A549 lung epithelial cells” value is given as “rapid antiinfective activity”. Further, in data set [1] (10 μM, 15 minutes), the “killing % of the intracellular population within 15 minutes” value is 82% and 80%. Also, the “% of the intracellular population killed after 2 hours of treatment” value in data set [1] (10 μM, 2 hours) amounted to 99%. The “effect of removal of gentamicin from the culture medium on antibacterial activity” value in [1] (10 μM, 2 hours, presence vs absence of gentamicin) is listed as “had no impact on the potent antibacterial activity”. In data set [1] (setting [10]), the “killing % of the intracellular K. pneumoniae population” value was 99%. In data set [1] (4 mg/ml ciprofloxacin for 14 hours, then (S)-crizotinib for 6 hours in the presence of ciprofloxacin), the “activity against intracellular ciprofloxacin-tolerant K. pneumoniae persisters” value is reported as “dose-dependent antibacterial activity”. Further, in [1] (2 hours, absence of gentamicin, supernatants), the “increase of extracellular bacteria (exocytosis of Klebsiella-containing compartments)” value is on record as “did not result in a significant increase of extracellular bacteria”. Further, in data set [1], the EC50 was found to be 1700 nM. Further, the “antibacterial activity in cells infected with Salmonella Typhimurium” value in data set [8] (HeLa epithelial cells, 10 μM, 20 hours (4 to 24 hours post infection)) is given as “antibacterial activity”. Moreover, the “outcome in high-throughput screen” value in [2] is recorded as “top hits”.
In the case of `Clc1ccccc1CNCC1CCC(CNCc2ccccc2Cl)CC1` (centres unmarked) [AY 9944], the “antibacterial activity against K. pneumoniae grown in axenic medium” value in [4] was “no host cell toxicity or antimicrobial activity in axenic medium”. The “host cell cytotoxicity” value in the data set on bladder epithelial cells (setting [12]) is “no host cell toxicity”. Moreover, in the data set with interferon beta response, the “interferon beta response in bladder epithelial cells infected with K. pneumoniae” value was “do not induce an interferon beta response”. The EC50 came out at 1000 nM in the data set with SARS-COV-2 (Severe acute respiratory syndrome coronavirus 2, Vero C1008, read-out: EC50 of antiviral activity in SARS-COV-2 infections) and 940 nM in [1] (setting [11]). Also, in [1] (10 uM, 60 minutes), the “killed % of the intracellular population in 60 minutes” value is reported as “approx. 80%”. The entries for the “FF-MAS, fold increased” value in data set [9] (2 hour treatment) and in data set [9] (24 hour treatment) were 4.2 fold and 11.9 fold, respectively. The “dehydrodesmosterol, fold increased” value was 1.2 fold in data set [9] (2 hour treatment) and 2.9 fold in data set [9] (24 hour treatment). The “lanosterol, fold increased” value in data set [9] (2 hour treatment) is 1.2 fold; in data set [9] (24 hour treatment), 3 fold. The “outcome in high-throughput screen” value in data set [2] is “hit”.
`CNc1cc(-c2cccc(Cl)c2Cl)nc(N)n1` [TH287]: in the data set on bladder epithelial cells (setting [12]), the “host cell cytotoxicity” value was “dose dependent toxicity”. In data set [1] (10 μM), the “intracellular antibacterial activity after 4 hours of treatment” value is “did not display intracellular antibacterial activity” and the “intracellular antibacterial activity after 24 hours of treatment” value was “modest antibacterial activity”.
Regarding `Nc1nc(NC2CC2)cc(-c2cccc(Cl)c2Cl)n1` [TH588], the “host cell cytotoxicity” value in the data set on bladder epithelial cells (setting [12]) was “dose dependent toxicity”. In data set [1] (10 μM), the “intracellular antibacterial activity after 4 hours of treatment” value is on record as “did not display intracellular antibacterial activity; also recorded: did not induce intracellular antibacterial activity” and the “intracellular antibacterial activity after 24 hours of treatment” value was “modest antibacterial activity”.
For `C[C@@H](Oc1cc(-c2cnn(C3CCNCC3)c2)cnc1N)c1c(Cl)ccc(F)c1Cl` [crizotinib], in the data set on Gram-positive bacteria, the “concentration for growth inhibition of Gram-positive bacteria” value was more than 20 µM.
For `CC(C)Cn1cnc2c(N)nc3ccccc3c21` [imiquimod], the “anti-infective / antimicrobial activity of TLR7 agonist” value in [1] (after 24 hours of treatment) was “moderate anti-infective activity; also recorded: Modest antimicrobial activity”.
`C[C@@H](O)[C@H]1C(=O)N2C(C(=O)O)=C(S[C@@H]3CN[C@H](C(=O)N(C)C)C3)[C@H](C)[C@H]12` [meropenem]: the “impact on the viability of intracellular K. pneumoniae” value in [1] (meropenem 10 μg/ml (150 fold of MIC), 20 hours) is listed as “no impact; also recorded: ineffective”. In data set [8] (meropenem 10 μg/ml, after 20 hours of treatment), the “killed % of intracellular Salmonella Typhimurium population” value was 87%.
